The text below walks through data of US20100323990A1, “SHIP 1 MODULATOR PRODRUGS” (THE UNIVERSITY OF BRITISH COLUMBIA, priority 2006, published 2010).

One test relates to SHIP C2 domain. Nature of the test: Scintillation proximity assay, C2 domain. It counts as binding. As to conditions: C2 domain 10 nM on SPA beads. How it is done: (§1) Compound 100 was radiolabelled with tritium by GE Healthcare (Piscataway, N.J.) to a specific activity of 42 Ci/mmole. Copper chelate (His-Tag) YSi SPA Scintillation Beads (GE ealthcare, Piscataway, N.J.) were diluted in 0.25% BSA/TBS to 1.5 mg/mL and recombinant, His6-tagged protein added at the indicated concentrations: wild-type (1 pM), ΔC2 SHIP enzyme (1 pM) or C2 domain (10 nM). Protein was allowed to bind 1 h at 23° C., and 250 μg of beads were aliquoted per well of a 96-well plate. 5 μCi of [^3H]-Compound 100 was added per well, the plate gently agitated for 30 min and the amount of bead associated radioactivity quantified by counting in a Wallac BetaPlate plate scintillation counter.
(§2) Isolated recombinant, His6-tagged C2 domain was expressed and its PI-3,4-P2 binding ability was determined using protein lipid overlay assays. Purified C2 domain was incubated with membrane strips spotted with PI-3,4-P2 and bound protein detected using an anti-His6 antibody. As shown in FIG. 11C the C2 domain bound PI-3,4-P2 and this binding was inhibited by Compound 100, consistent with both Compound 100 and PI-3,4-P2 interacting with the C2 domain at a common binding site.
Background: In a scintillation proximity assay essentially only radioactivity close to the scintillant gives light.

Another test concerns wild-type SHIP. Description: Scintillation proximity assay, wild-type SHIP. Format: binding. As to conditions: SPA beads. How it is done:
as §1, §2

Test [1] has as its system 100 protein kinase and phosphatase targets. Nature of the test: Profiling against 100 protein kinase and phosphatase targets (SignalChem). It counts as biochemical. As to conditions: 2 μM final concentration; changes <25% not considered significant. How it is done: Compound profiling activity was undertaken using 100 protein kinase and phosphatase targets by SignalChem (Richmond, BC, Canada. www.signalchem.com) against compound Compound 100 (2 μM final concentration). Protein kinase assays were performed in the presence of 50 μM ATP at 30° C. for 15 min. Protein phosphatase activites were determined using pNPP as substrate and were also performed at 37° C. for 15 min. The activity of the enzymes in the presence of Compound 100 was compared to that in the vehicle control and expressed as a % change in activity relative to that observed in the vehicle control. Changes in activity of <25% were not considered significant. Enzymes affected by Compound 100 are plotted in an expanded graph in FIG. 12B.

The subject of test [2] is SHIP−/− bone marrow derived macrophages. Description: LPS-stimulated TNFα production in SHIP−/− bone marrow derived macrophages. Format: cell-based, mice. Conditions: SHIP−/− cells, 15 μM, 10 ng/mL LPS 2 h. How it is done:
Bone marrow cells were aspirated from 4 to 8 week old C57B16×129Sv mixed background mice and SHIP^+/+ and SHIP^−/− mast cells prepared as described previously. Bone marrow derived macrophages from SHIP^+/+ and SHIP^−/− mice were obtained and maintained in IMDM supplemented with 10% FCS, 150 μM MTG, 2% C127 cell conditioned medium as a source of macrophage colony stimulating factor (M-CSF) (macrophage medium)
LPS stimulation of macrophages. For the analysis of LPS-stimulated TNFα production, 2×10^5 cells were plated the night before in 24 well plates in macrophage medium. The next day, the medium was changed and AQX-016A or carrier was added to cells at the indicated concentrations for 30 min prior to the addition of 10 ng/mL LPS. Supernatants were collected for TNFα determination by ELISA (BD Biosciences, Mississauga, ON, Canada). For analysis of intracellular signaling, 2×10^6 cells were plated the night before in 6 cm tissue culture plates. […] Calcium influx was monitored by spectrofluorometry. […] Total cell lysates were then prepared and analyzed for phospho-PKB, phospho-p38^MAPK, phospho-MAPK, Grb-2 (Cell Signalling, Mississauga, Ont) and SHIP^6 by immunoblot analysis.
The target specificity and biological efficacy of AQX-016A were assessed by comparing AQX-016A's effects on PI3K-regulated processes in primary SHIP^+/+ vs SHIP^−/− macrophages and mast cells. […]

With `Cc1cc(O)cc2c1[C@]1(C)CCC3C(C)(C)CCC[C@]3(C)[C@H]1C2` (stereo partly shown) [Compound 100], in the test on SHIP C2 domain, the “binding of [3H]-Compound 100 to C2 domain” value was “directly bind the C2 domain”. Besides, in the test on wild-type SHIP, the “binding of [3H]-Compound 100 to wild-type SHIP” value is “bound to wild-type SHIP”. Besides, in test [1], the “off-target effects on 100 other kinases and phosphatases” value was “minimal off-target effects”.
As to `Cc1cc(O)c(O)c2c1[C@]1(C)CCC3C(C)(C)CCC[C@]3(C)[C@H]1C2` (stereo partly shown) [AQX-016A], the “suppression of TNFα production” value in test [2] came out at 15%.
